Tested on: CaSki (ATCC CRM-CRL-1550)
Test: Monolayer assay using Sulphorhodamine B (SRB) staining, CaSki
Type: cell-based
Conditions: Homo sapiens, Ca-Ski, read-out: EC50 mean [nM]
Description: Various cell culture cells grown as monolayers are harvested from exponential growing cultures after treatment with various OC compounds at different concentrations. For this depending on the cell line, 10.000 to 30.000 cells were plated in 96-well flat-bottom microtiter plates. After a 24 h recovery period to allow cells to resume exponential growth, supernatants are discarded and 100 μl of culture medium (eight control wells/plate) or culture medium with the test compound are added by a liquid handling robotic system (Microlab® Starlet, Hamilton) and treatment continued for 72 hrs. Compounds are applied at 9 concentrations and eight wells/concentration). At least three independent experiments are performed. For SRB staining, cells are fixed with SRB01 (Tab. 5) for 1 h at 4° C. (final concentration of TCA=10%) washed with a plate washer (Hydroflex, Tecan©) for five times with H2O; and stained with 100 μl of SRB02 at room temperature for 10 min following 4 washes in SRB03 and finally 100 μl of developer solution SRB04 for 5 minutes with shaking. Optical density is assessed using a plate-reader (Sunrise, Tecan©) at 540 nm.
Concentrations required for half maximal response of the compound for cell growth inhibition (EC50) is calculated by non-linear regression (log[conc. of inhibitor] versus response (% T/C)) using the analysis software GraphPad Prism®, Prism 5 for windows, version 5.01 (GraphPad Software Inc., CA).

SMILES | EC50
CN1CCN(c2cccc(NC(=O)[C@@H]3c4ccccc4C(=O)N(Cc4cccnc4)[C@H]3c3ccc(C(F)(F)F)cc3)c2)CC1 (relative stereo) [OC976] | 4720 nM

Tested on: CaSki cells
Test: Cell cycle analysis using Propidium-Iodide staining (flow cytometry)
Type: cell-based, human
Conditions: 48 hour incubation, 5 μM, no treatment 15.0
Description: Propidium-Iodide (PI) DNA staining is performed to facilitate cell cycle analysis. For PI-DNA staining, fixed cells and eventually antibody-stained cells are resuspended in 450 μl of PBS (per 10^6 cells) and incubated with 100 μg/ml RNase (stock 1 mg/ml, in PBS) for 10 minutes at 37° C. Cells are then incubated with 5 μg/106 cells of PI (stock 1 mg/ml in PBS) for 10 minutes at room temperature. Samples are stored at 4° C. until CF analysis.
CaSki cells were incubated with various compounds and cell cycle distribution of the cells was assessed using Propidium-Iodide staining.
In order to analyze the cytostatic versus the cytotoxic effect of OC compounds, cell cycle profiles were analyzed in vitro after 48 hour incubations using Flow Cytometry as a read out. For this a cell cycle analysis from selected OC E7 degrader compounds was conducted in CaSki cells. Using 6 well plates, 1.5×10^5 cells were seeded for each well and grown over night at 37° C. 5% CO2. For analysis of the cell cycle behavior, cells were analyzed in the presence of propidium Iodide (PI^−) by flow cytometry (FC). Briefly, cells were detached by trypsin digestion, all supernatants were included in the analysis, and fixed with 70% ice cold ethanol and stored at 4° C. until FC analysis using PI^− staining (1 mg/ml). At least 7000 events were acquired for each sample.

SMILES | A*/5 μM (apoptosis as measured from total SUB G1 content)
CN1CCN(c2cccc(NC(=O)[C@@H]3c4ccccc4C(=O)N(Cc4cccnc4)[C@H]3c3ccc(C(F)(F)F)cc3)c2)CC1 (relative stereo) [OC976] | 11.4%

Same assay, conditions: 48 hour incubation, 10 μM, no treatment 15.0

SMILES | A*/10 μM (apoptosis as measured from total SUB G1 content)
CN1CCN(c2cccc(NC(=O)[C@@H]3c4ccccc4C(=O)N(Cc4cccnc4)[C@H]3c3ccc(C(F)(F)F)cc3)c2)CC1 (relative stereo) [OC976] | 12.8%

Same assay, conditions: cell cycle distribution, 48 hour incubation, 5 μM, no treatment 15.6

SMILES | G2/5 μM
CN1CCN(c2cccc(NC(=O)[C@@H]3c4ccccc4C(=O)N(Cc4cccnc4)[C@H]3c3ccc(C(F)(F)F)cc3)c2)CC1 (relative stereo) [OC976] | 9.3%

Same assay, conditions: cell cycle distribution, 48 hour incubation, 5 μM, no treatment 53.3

SMILES | G1/5 μM
CN1CCN(c2cccc(NC(=O)[C@@H]3c4ccccc4C(=O)N(Cc4cccnc4)[C@H]3c3ccc(C(F)(F)F)cc3)c2)CC1 (relative stereo) [OC976] | 58.8%

Same assay, conditions: cell cycle distribution, 48 hour incubation, 10 μM, no treatment 15.6

SMILES | G2/10 μM
CN1CCN(c2cccc(NC(=O)[C@@H]3c4ccccc4C(=O)N(Cc4cccnc4)[C@H]3c3ccc(C(F)(F)F)cc3)c2)CC1 (relative stereo) [OC976] | 16.9%

Same assay, conditions: cell cycle distribution, 48 hour incubation, 10 μM, no treatment 53.3

SMILES | G1/10 μM
CN1CCN(c2cccc(NC(=O)[C@@H]3c4ccccc4C(=O)N(Cc4cccnc4)[C@H]3c3ccc(C(F)(F)F)cc3)c2)CC1 (relative stereo) [OC976] | 53.2%

Tested on: SARS-CoV-2 isolate BetaCov/Belgium/GHB-03021/2020
Test: microbe, parasite or virus in culture
Type: cell-based
Conditions: Severe acute respiratory syndrome coronavirus 2; 1.25 μM (non-toxic compound concentration), n4

SMILES | inhibition at 1.25 µM
CN1CCN(c2cccc(NC(=O)[C@@H]3c4ccccc4C(=O)N(Cc4cccnc4)[C@H]3c3ccc(C(F)(F)F)cc3)c2)CC1 (relative stereo) [OC976] | 27.1%

Tested on: human cervical carcinoma (CaSki) xenograft
Test: CaSki high risk HPV16 human cervical carcinoma xenograft model
Type: in vivo, nude mice
Conditions: OC246/OC974 os 2 mg/kg/day, 4 × week, 3 cycles; CDDP i.v. q7d × 3, 6 mg/kg
Description: The aim of this study was to assess the in vivo efficacy of OC246 and OC974 on a human cervical carcinoma (CaSki) xenograft model in nude mice. OC246 and OC974 were administered oral once daily for four times with three days off, for three cycles at 2 mg/kg/dose. Cisplatin (CDDP) was used as a reference compound with three weekly intravenous (q7dx3) administrations of 6 mg/kg.

SMILES | % TGI (Day 44): percentage tumor growth inhibition with respect to controls
[NH2][Pt]([NH2])([Cl])[Cl] [CDDP, Cisplatin, reference compound] | 79.2%

Same assay, conditions: OC246/OC974 os 2 mg/kg/day; CDDP i.v. 6 mg/kg; control 100

SMILES | Δ% on Day 44
[NH2][Pt]([NH2])([Cl])[Cl] [CDDP, Cisplatin, reference compound] | 14%

Same assay, conditions: OC246/OC974 os daily 4 × week, 3 cycles, 2 mg/kg/day; CDDP i.v. q7d × 3, 6 mg/kg; control 1099 ± 503

SMILES | Tumor Volume Day 44 (mm^3 ± SD)
[NH2][Pt]([NH2])([Cl])[Cl] [CDDP, Cisplatin, reference compound] | 242 ± 182 mm^3

Same assay, conditions: between first day of treatment (day 20) and Day 44; OC246/OC974 os 2 mg/kg/day; CDDP i.v. 6 mg/kg; control +4.9

SMILES | Δ% Body Weight
[NH2][Pt]([NH2])([Cl])[Cl] [CDDP, Cisplatin, reference compound] | −10.2%

Biological target: T1, HPV16 E7 protein (Human papillomavirus type 16, UniProt P03129)
T1 construct: endogenous in cells; host or cells: CaSki cells (HPV16-positive cervical carcinoma)
T1 sequence (P03129 whole entry): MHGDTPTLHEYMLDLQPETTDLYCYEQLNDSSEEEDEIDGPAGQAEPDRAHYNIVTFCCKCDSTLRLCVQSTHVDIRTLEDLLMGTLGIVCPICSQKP
Test: not given
Type: cell-based
Conditions: CaSki cells; adjusted degradation, CHX steady state set to 100% degradation
Description: For intracellular antibody labeling, 0.5×10^6 cells are washed once with 1 ml ice-cold PBS. Cells are centrifuged at 350×g for 5 minutes at 4° C. and then fixed in 1% paraformaldehyde (1 ml/10^6 cells) for 20 minutes at 4° C. Cells are washed with 1 ml ice-cold PBS and centrifuged at 350×g for 5 minutes at 4° C. To permeabilize cells, 100% ice-cold methanol (1 ml/10^6 cells) is added to the cells and incubated for 20 minutes at 4° C. followed by centrifugation at 350×g for 5 minutes at 4° C. Cells are washed with 1 ml ice-cold PBS, centrifuged at 350×g for 5 minutes at 4° C. and resuspended in 0.1% saponin+2% FBS in PBS (ice-cold). Cells are left for 20-30 minutes at room temperature to reduce the background signal and then centrifuged at 350×g for 5 minutes at 4° C. The primary antibody (mAb_HPV16E7-1 (VS13004); concentration 1 μg/μl) is diluted in 0.1% saponin+2% FBS (dilution 0.25 μg/50 μl of incubation buffer per 1×10^6 cells (5 ng/μl)). Cells are incubated with primary antibody for 30 minutes at room temperature, washed with 0.1% saponin+2% FBS and centrifuged at 350×g for 5 minutes at 4° C. The secondary antibody (FITC conjugated goat anti-mouse IgG1-IgM, BD, cat. #555988) is diluted in 0.1% saponin+2% FBS (dilution 1:50). Cells are incubated with secondary antibody for 30 minutes at room temperature, washed once with 0.1% saponin+2% FBS, once with PBS and centrifuged at 350×g for 5 minutes at 4° C.
Cells are resuspended in 700 μl PBS prior to CF analysis with a Beckman Coulter FC 500 MPL, (excitation laser 488 nm). Data analysis is done using the Beckman Coulter software packages MXP for acquisition and CXP for data analysis which includes MFI calculation. Detection of HPV-E7 protein expression is based on morphology back-gating of FL1 histogram (logarithmic scale) with gating for dot plot FS (Forward Scatter) log/SS (Sideward Scatter) log and gating for histograms SS log.
In order to define the level of E7 protein expression and to study the extent of E7 protein steady state level reduction in E7 expressing cells in the presence of various compounds, FC analysis is implemented using the intracellular antibody labeling procedure for monoclonal antibodies to HPV E7. E7 signal intensities are analyzed from the obtained FL1 histograms at logarithmic scale. The FL1 single histogram graph represents the variation in the mean fluorescence intensity (MFI) channel for cells treated with selected compounds compared to cells not incubated with primary antibodies but incubated with secondary, which allows to test for auto-fluorescence, and non-compound treated cells as controls. Non-primary antibody-stained cells are used to set the acquisition parameters to zero. Decrease of the mean fluorescence intensity channel corresponds to a decrease in the expression of HPV16 E7 protein. Degradation of E7 in cells is calculated as percent (%) reduction in MFI(x-Me) using the following formulas: % Drel=(T−C)/T*100; i) relative degradation: % Dad=(T−C)/(T−CHX)*100; ii) adjusted degradation: • Drel=relative degradation, • Dad=adjusted degradation assuming CHX % Drel=100; • T=MFI of non-treated cells; • C=MFI of compound treated cells; • CH=MFI of cycloheximide (CHX) treated cells;
For comparison within one experiment i) the % relative degradation (Drel) is sufficient, whereas for comparison between two or more experiments ii) the adjusted degradation (Dad) is used and CHX steady state is set to a 100% degradation parameter.
1×10^6 freshly seeded CaSki cells (ATCC CRL-7915), are grown in 10 cm diameter cell culture dishes in RPMI1640, 10% FCS medium at 37° C. 5% CO2 overnight and then incubated in the presence of 10 μM Cycloheximide (CHX) 10 μM OC246 or with vehicle alone for four hours at 37° C. 5% CO2. Following this E7 protein is assessed by cytofluorimetric analysis using intracellular HPV16 E7 antibody labeling. […]

SMILES | % Dad
CN1CCN(c2cccc(NC(=O)[C@@H]3c4ccccc4C(=O)N(Cc4cccnc4)[C@H]3c3ccc(C(F)(F)F)cc3)c2)CC1 (relative stereo) [OC976] | 54%

Reference: patent US12630523B2, “Isoquinoline derivatives for use as antiviral and antitumour agents” (priority 2021, dated 2026)
